{
  "source": "patent US6338859B1",
  "about": "“Polymeric micelle compositions” (Labopharm Inc., priority 2000, dated 2002)",
  "origin": "cited, not measured here",
  "key": {"[1]": {"assay": "not given", "remark": "listed apart in the source"}, "[2]": {"settings": "polymer PEO-P(Asp), chemical bonding"}, "[3]": {"settings": "polymer PEO-PBLA, physical entrapment"}, "[4]": {"settings": "polymer PEO-PE, physical entrapment"}},
  "note": "“And” between values parts separate entries of the source, which are not always exact repeats. Identical values can stand only once. Like-named read-outs stand apart in the source and are kept apart here. Marks after values point to notes of the source that are not given here.",
  "data": [
    {"molecule": "N.N.[Cl][Pt][Cl]", "note": "[Cisplatin]", "values": [
      {"measurement": "Micelle size with drug", "setting": "[2]", "value": 16, "unit": "nm"}
    ]},
    {"molecule": "O=C(CCCN1CCC(O)(c2ccc(Cl)cc2)CC1)c1ccc(F)cc1", "note": "[Haloperidol]", "values": [
      {"measurement": "Micelle size with drug", "setting": "polymer PEO-PPO-PEO, physical entrapment", "value": 15, "unit": "nm"}
    ]},
    {"molecule": "COc1cccc2c1C(=O)c1c(O)c3c(c(O)c1C2=O)C[C@@](O)(C(=O)CO)C[C@@H]3O[C@H]1C[C@H](N)[C@H](O)[C@H](C)O1", "note": "[DOX, doxorubicin]", "values": [
      {"measurement": "retention of drug in micelles", "setting": "[1]; in PEO-PBLA after freeze drying and reconstitution in water, iodide quenching", "value": "retained"},
      {"measurement": "Micelle size with drug", "setting": "[2]", "value": "14-131 nm and 17-42 nm"},
      {"measurement": "Micelle size with drug", "setting": "polymer PEO-P(Asp), chemical bonding, listed as Doxirubicin (DOX)", "value": 50, "unit": "nm"},
      {"measurement": "Micelle size with drug", "setting": "[3]", "value": "30 nm and 37 nm"}
    ]},
    {"molecule": "COc1ccc2c(c1)c(CC(=O)O)c(C)n2C(=O)c1ccc(Cl)cc1", "note": "[Indomethacin]", "values": [
      {"measurement": "Micelle size with drug", "setting": "[3]", "value": "25-29 nm"},
      {"measurement": "Micelle size with drug", "setting": "polymer PEO-PCL, physical entrapment", "value": "145-165 nm and 114-156 nm"}
    ]},
    {"molecule": "KRN-5500", "values": [
      {"measurement": "Micelle size with drug", "setting": "polymer PEO-(C16, BLA), physical entrapment, after the sonication of PEO(C16, BLA) aggregates", "value": "71* nm"}
    ]},
    {"molecule": "^111In-DTPA-SA", "values": [
      {"measurement": "Micelle size with drug", "setting": "[4]", "value": 20, "unit": "nm"}
    ]},
    {"molecule": "C[C@@H]1[C@H](O)[C@@H](C)/C=C/C=C/C=C/C=C/C=C/C=C/C=C/[C@H](O[C@@H]2O[C@H](C)[C@@H](O)[C@H](N)[C@@H]2O)C[C@@H]2O[C@](O)(C[C@@H](O)C[C@@H](O)[C@H](O)CC[C@@H](O)C[C@@H](O)CC(=O)O[C@H]1C)C[C@H](O)[C@H]2C(=O)O", "note": "[Amphotericin B]", "values": [
      {"measurement": "hemolytic activity", "setting": "[1]; after incorporation into PEO-PBLA micelles", "value": "decrease"},
      {"measurement": "Micelle size with drug", "setting": "[3]", "value": 26, "unit": "nm"}
    ]},
    {"molecule": "Gd-DTPA-PE", "values": [
      {"measurement": "Micelle size with drug", "setting": "[4]", "value": 20, "unit": "nm"}
    ]},
    {"molecule": "Cc1cc(N)c2ccccc2[n+]1CCCCCCCCCC[n+]1c(C)cc(N)c2ccccc21", "note": "[Dequalinium]", "values": [
      {"measurement": "Micelle size with drug", "setting": "[4]", "value": 15, "unit": "nm"}
    ]},
    {"molecule": "Soybean trypsin inhibitor: Soybean trypsin inhibitor physically entrapped in PEO-PE micelles (protein, UniProt P01070 25-205, looked up, entrapped in PEO-PE micelles) Trypsin inhibitor A: DFVLDNEGNPLENGGTYYILSDITAFGGIRAAPTGNERCPLTVVQSRNELDKGIGTIISSPYRIRFIAEGHPLSLKFDSFAVIMLCVGIPTEWSVVEDLPEGPAVKIGENKDAMDGWFRLERVSDDEFNNYKLVFCPQQAEDDKCGDIGISIDHDDGTRRLVVSKNKPLVVQFQKLDKESL", "values": [
      {"measurement": "Micelle size with drug", "setting": "[4]", "value": 15, "unit": "nm"}
    ]}
  ]
}
